Data set [1] concerns the target Serine/threonine-protein kinase mTOR (Homo sapiens, UniProt P42345). Kind of data set: Inhibition of N-terminal FLAG-tagged recombinant human mTOR (1362 to end residue) using ULight-4EBP1 peptide as substrate incubated for 30 mins in presence of ATP by Lance ultra assay.
Data set [2] has as its target T1, Phosphatidylinositol 4,5-bisphosphate 3-kinase catalytic subunit delta isoform (Homo sapiens, UniProt O00329).
T1 sequence (O00329 whole entry): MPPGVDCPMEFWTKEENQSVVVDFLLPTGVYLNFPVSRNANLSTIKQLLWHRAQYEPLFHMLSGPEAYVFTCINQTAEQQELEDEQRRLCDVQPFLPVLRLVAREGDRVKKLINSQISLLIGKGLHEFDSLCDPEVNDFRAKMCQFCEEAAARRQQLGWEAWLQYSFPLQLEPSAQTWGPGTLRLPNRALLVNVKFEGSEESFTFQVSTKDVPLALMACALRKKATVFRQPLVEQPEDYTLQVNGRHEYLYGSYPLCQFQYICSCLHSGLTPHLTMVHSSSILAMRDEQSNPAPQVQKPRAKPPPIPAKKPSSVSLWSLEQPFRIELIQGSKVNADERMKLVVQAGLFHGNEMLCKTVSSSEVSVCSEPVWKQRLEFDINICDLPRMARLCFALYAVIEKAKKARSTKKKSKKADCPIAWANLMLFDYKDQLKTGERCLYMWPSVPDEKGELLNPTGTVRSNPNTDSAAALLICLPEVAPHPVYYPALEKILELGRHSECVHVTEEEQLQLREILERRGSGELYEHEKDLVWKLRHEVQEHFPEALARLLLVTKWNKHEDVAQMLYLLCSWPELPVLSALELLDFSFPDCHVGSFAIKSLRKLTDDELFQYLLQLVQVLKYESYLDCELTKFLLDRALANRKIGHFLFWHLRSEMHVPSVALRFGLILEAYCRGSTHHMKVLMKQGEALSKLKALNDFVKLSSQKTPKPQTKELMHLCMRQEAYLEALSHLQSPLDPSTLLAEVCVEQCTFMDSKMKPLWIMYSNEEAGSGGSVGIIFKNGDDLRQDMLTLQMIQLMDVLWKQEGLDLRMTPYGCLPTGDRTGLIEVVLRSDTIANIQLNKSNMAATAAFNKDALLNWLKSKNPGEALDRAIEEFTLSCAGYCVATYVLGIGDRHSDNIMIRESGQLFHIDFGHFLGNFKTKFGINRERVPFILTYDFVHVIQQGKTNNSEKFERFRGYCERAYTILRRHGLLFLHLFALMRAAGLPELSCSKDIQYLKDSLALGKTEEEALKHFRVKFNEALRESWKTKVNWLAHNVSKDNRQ
Briefly: Inhibition of PI3Kdelta (unknown origin) using PIP2 as substrate incubated for 2 hrs in presence of ATP by Kinase Glo luminescence assay. On the technique in general: Kinase-Glo reads ATP consumption through a luciferase reaction.

The subject of the next data set is HT-29. Briefly: Antiproliferative activity against human HT-29 cells with PIK3CA mutation assessed as inhibition of cell growth incubated for 48 to 72 hrs by MTT assay. The data set is classed as functional, cell-based. (In general: Tetrazolium assays rely on reduction of a dye to a coloured formazan, in cell work by metabolically active cells.)
The test system of the next data set is HCT-15. Kind of data set: Antiproliferative activity against human HCT-15 cells with PIK3CA mutation assessed as inhibition of cell growth incubated for 48 to 72 hrs by MTT assay. The data set is classed as functional, cell-based.
Data set [3] concerns SW-620. Briefly: Antiproliferative activity against human SW620 cells assessed as inhibition of cell growth incubated for 48 to 72 hrs by MTT assay. The data set is classed as functional, cell-based.
For data set [4], the system named is SW-620. Kind of data set: Inhibition of colony formation in human SW620 cells assessed as reduction in colony forming ability incubated for 15 days by crystal violet staining based analysis. To be noted: dose 0.15625-1.25 µM, time 15.0 day, DDE = dose-dependent effect. The data set is classed as functional, cell-based.
The subject of data set [5] is HeLa. Kind of data set: Inhibition of colony formation in human HeLa cells assessed as reduction in colony forming ability at 0.625 uM incubated for 15 days by crystal violet staining based analysis. The data set is classed as functional. As to conditions: 360 h, time 15 day.
The subject of data set [6] is HeLa. Briefly: Induction of apoptosis in human HeLa cells assessed as early apoptotic cells at 0.15625 uM incubated for 36 hrs by Annexin V-FITC/PI staining based flow cytometric analysis (reference value: 2.02 %). The data set is classed as functional. To be noted: 0.1562 µM. A general note: Flow cytometry measures light scatter and fluorescence of single cells or particles in a stream.

In data set [7] the test system is HeLa. Briefly: Induction of apoptosis in human HeLa cells assessed as early apoptotic cells at 0.625 uM incubated for 36 hrs by Annexin V-FITC/PI staining based flow cytometric analysis (reference value: 2.02 %). The data set is classed as functional.
Data set [8] deals with HeLa. Briefly: Induction of apoptosis in human HeLa cells assessed as late apoptotic cells at 0.625 uM incubated for 36 hrs by Annexin V-FITC/PI staining based flow cytometric analysis (reference value: 1.4 %). The data set is classed as functional.
Data set [9] deals with HeLa. Kind of data set: Induction of apoptosis in human HeLa cells assessed as early apoptotic cells at 1.25 uM incubated for 36 hrs by Annexin V-FITC/PI staining based flow cytometric analysis (reference value: 2.02 %). The data set is classed as functional.
Data set [10] concerns HeLa. Kind of data set: Induction of apoptosis in human HeLa cells assessed as late apoptotic cells at 2.5 uM incubated for 36 hrs by Annexin V-FITC/PI staining based flow cytometric analysis (reference value: 1.4 %). The data set is classed as functional.
The subject of data set [11] is HeLa. Briefly: Inhibition of PI3K/mTOR signalling pathway in human HeLa cells assessed as inhibition of Akt phosphorylation at Ser473 residue incubated for 24 hrs by Western blot analysis. The data set is classed as cell-based. To be noted: dose 0.3125-2.5 µM, DDE = dose-dependent effect.
Data set [12] concerns HeLa. Briefly: Inhibition of PI3K/mTOR signalling pathway in human HeLa cells assessed as inhibition of Akt phosphorylation at Thr308 residue incubated for 24 hrs by Western blot analysis. The data set is classed as cell-based. To be noted: dose 0.3125-2.5 µM, DDE = dose-dependent effect.
Data set [13] deals with HeLa. Kind of data set: Inhibition of PI3K/mTOR signalling pathway in human HeLa cells assessed as inhibition of S6 protein phosphorylation incubated for 24 hrs by Western blot analysis. The data set is classed as cell-based. As to conditions: dose 0.3125-2.5 µM, DDE = dose-dependent effect.
Data set [14] concerns HeLa. Briefly: Induction of cell cycle arrest in human HeLa cells assessed as accumulation of cells at G0/G1 phase measured after 24 hrs by propidium iodide staining based flow cytometry analysis. The data set is classed as functional. To be noted: dose 0.15625-2.5 µM, DDE = dose-dependent effect.
Data set [15] is described as follows: AUC (0 to infinity) in Sprague-Dawley rat at 1 mg/kg, iv measured for 24 hrs by LC-MS/MS analysis. The data set is classed as ADME, organism-based. Further details: time 24 hrs, dose 1 mg/kg, route iv. To be noted: in vivo.
Data set [16] is described as follows: Half life in Sprague-Dawley rat at 10 mg/kg, po measured for 24 hrs by LC-MS/MS analysis. The data set is classed as ADME, organism-based. To be noted: in vivo.
Data set [17] deals with HeLa. Briefly: Antitumor activity against human HeLa cells xenografted in BALB/c nude mouse assessed as tumor growth inhibition at 60 mg/kg, IG administered daily for 30 days and measured every 2 days relative to control. The data set is classed as functional. As to conditions: po, 720 h, time 30 day, read-out: TGI.
The subject of data set [18] is SW-620. Briefly: Antitumor activity against human SW620 cells xenografted in BALB/c nude mouse assessed as tumor growth inhibition at 60 mg/kg, IG administered daily for 30 days and measured every 2 days relative to control. The data set is classed as functional. As to conditions: SW-620, po, 720 h, time 30 day, read-out: TGI.
Data set [19] concerns HeLa. Briefly: Antitumor activity against human HeLa cells xenografted in BALB/c nude mouse assessed as reduction in Ki67 expression in tumor administered intragastrically daily for 30 days by immunohistochemical analysis. The data set is classed as functional. As to conditions: dose 15-60 mg/kg, route ig, time 30.0 day.
Data set [20] has as its target Phosphatidylinositol 4,5-bisphosphate 3-kinase catalytic subunit alpha isoform (Homo sapiens, UniProt P42336). Kind of data set: Inhibition of PI3Kalpha (unknown origin) using L-alpha-phosphatidylinositol as substrate incubated for 60 mins in presence of ATP by Kinase Glo luminescence assay.

Active and inactive are the calls of the source. The rule behind the calls is not given here.

Chain of Phosphatidylinositol 4,5-bisphosphate 3-kinase catalytic subunit alpha isoform (P42336 whole entry, canonical isoform): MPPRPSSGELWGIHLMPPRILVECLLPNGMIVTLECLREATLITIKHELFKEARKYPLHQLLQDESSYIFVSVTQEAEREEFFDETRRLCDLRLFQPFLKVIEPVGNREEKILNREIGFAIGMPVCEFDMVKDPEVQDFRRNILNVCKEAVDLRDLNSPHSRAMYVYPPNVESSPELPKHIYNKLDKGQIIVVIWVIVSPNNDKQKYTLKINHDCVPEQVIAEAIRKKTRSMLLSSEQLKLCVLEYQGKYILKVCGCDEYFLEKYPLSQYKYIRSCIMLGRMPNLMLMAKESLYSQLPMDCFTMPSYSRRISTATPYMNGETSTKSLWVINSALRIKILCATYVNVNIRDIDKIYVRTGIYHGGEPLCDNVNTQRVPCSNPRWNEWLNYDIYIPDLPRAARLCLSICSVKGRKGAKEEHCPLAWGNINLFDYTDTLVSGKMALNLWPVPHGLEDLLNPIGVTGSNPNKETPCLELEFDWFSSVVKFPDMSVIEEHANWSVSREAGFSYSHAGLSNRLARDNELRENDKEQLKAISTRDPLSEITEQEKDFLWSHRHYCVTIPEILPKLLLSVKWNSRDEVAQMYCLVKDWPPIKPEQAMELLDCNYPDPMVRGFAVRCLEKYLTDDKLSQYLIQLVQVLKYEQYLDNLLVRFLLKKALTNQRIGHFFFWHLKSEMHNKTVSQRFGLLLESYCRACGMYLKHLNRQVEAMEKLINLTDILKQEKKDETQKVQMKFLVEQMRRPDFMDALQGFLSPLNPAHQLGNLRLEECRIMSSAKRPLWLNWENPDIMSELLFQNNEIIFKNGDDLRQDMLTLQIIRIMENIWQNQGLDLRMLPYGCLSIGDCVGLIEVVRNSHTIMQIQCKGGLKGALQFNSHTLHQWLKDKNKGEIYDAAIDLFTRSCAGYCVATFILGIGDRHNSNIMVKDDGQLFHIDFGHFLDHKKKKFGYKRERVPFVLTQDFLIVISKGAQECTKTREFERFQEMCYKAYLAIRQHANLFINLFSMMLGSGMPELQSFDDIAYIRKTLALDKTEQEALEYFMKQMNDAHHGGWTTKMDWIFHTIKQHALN

As to `Cc1nc2cnc3ccc(-c4cnc5[nH]ccc5c4)cc3c2n1-c1ccc(C(C)(C)C#N)nc1`, the concentration for half-maximal inhibition (IC50) (as a rule, the concentration that inhibits the measured activity by half) came out at 0.0213 µM in data set [1]; 0.0046 µM in [2]; 0.25 µM in the data set on HT-29; 0.17 µM with HCT-15; 0.16 µM in the data set on SW-620 [3]; 0.004 µM in data set [20]. Also, the inhibition entry in the data set with SW-620 [4], in the data set on HeLa [11], in the data set on HeLa [12] and in the data set with HeLa [13] was “Dde” in each case. For the same compound, the inhibition – broadly, the relative decrease from the control value, in per cent – at 0.625 µM in the data set on HeLa [5] was 100%. For the same compound, the Activity was 4.18% with HeLa [6]; 18.32% in the data set on HeLa [7]; 8.81% in the data set on HeLa [8]; 26.11% in the data set with HeLa [9]; 38.86% in the data set on HeLa [10]; “Dde” with HeLa [14]. Moreover, the exposure (AUC) (in general, the area under the concentration-time curve, a measure of exposure) in [15] worked out at 0.992 µg·h/mL. For the same compound, the t1/2 in [16] is 2.6 h. The inhibition in vivo at 60 mg/kg in the data set with HeLa [17] was determined as 80.2%; in the data set on SW-620 [18], 81%. Moreover, in the data set with HeLa [19], the outcome was Active.

For the origin of these results see ChEMBL document CHEMBL5108059, “Discovery of 2-Methyl-2-(4-(2-methyl-8-(1H-pyrrolo[2,3-b]pyridin-6-yl)-1H-naphtho[1,2-d]imidazol-1-yl)phenyl)propanenitrile as a Novel PI3K/mTOR Inhibitor with Enhanced Antitumor Efficacy In Vitro and In Vivo” (J Med Chem, 2022).
